Literature values as cited in US20260174718A1, “MODULATORS OF mTORC1 ACTIVITY AND USES THEREOF” (Navitor Pharmaceuticals, Inc., priority 2022, published 2026).

Test system: mice
Conditions: ketamine 2.5 mg/kg, intraperitoneally

For `CNC1(c2ccccc2Cl)CCCCC1=O` (stereo not shown) [ketamine], the “effect of ketamine challenge alone in the forced swim test” value is given as “ineffective”.
